This assay has as its system E0771 tumor. Kind of assay: E0771 tumor growth in mice (incl. shRNA sublines, cell depletion). Format: in vivo. The protocol: FIGS. 3A-D show the therapeutic effects of echinomycin on tumor growth in immunodeficient and immunocompetent mice. FIG. 3A. Experimental design. Three murine tumor lines were tested: 4T1, E0771, or MC38. For each, immunodeficient and immunocompetent mice were inoculated (day 0), and treatment was initiated with control liposomes (vehicle) or echinomycin liposomes (LEM) on day 6, indicated by arrows in FIGS. 3B-3D. The kinetics of tumor growth were compared to deduce the role of adaptive immunity in the therapeutic effects of echinomycin. FIG. 3B. 4T1 cells (1×10^6) were transplanted into mammary fat pad of NSG and BALB/c mice, which received vehicle or echinomycin (0.15 mg/kg) (arrows). Mean tumor volumes±SEM are shown for one of two independent experiments (n=10/group). FIG. 3C. Kinetics of E0771 tumor growth. E0771 cells (0.7×10^6) were transplanted into mammary fat pad of NSG and C57BL/6 mice, which received vehicle or echinomycin (0.25 mg/kg) (arrows). Mean tumor volumes±SEM are shown for one of two independent experiments (n=5/group). FIG. 3D. Kinetics of MC38 tumor growth. MC38 cells (1×10^6) were transplanted subcutaneously into NSG and C57BL/6 mice, which received vehicle or echinomycin (0.15 mg/kg) (blue arrows). Mean tumor volumes±SEM are shown for one of two independent experiments (n=5/group).
FIGS. 4A-D show the effects of pharmacological and/or genetic targeting of HIF-1α on E0771 tumor growth in immunodeficient or immunocompetent mice. FIG. 4A. Experimental design. Three sublines of E0771 were generated by lentiviral transduction: scrambled shRNA (sh^−Scr), or shRNA for the Hif1α (sh^−Hif1α) or Pdl1 (sh^−Pdl1) genes. For each subline, 0.5×10^6 cells were orthotopically transplanted into NSG or C57BL/6 mice (day 0), which received vehicle or echinomycin (0.25 mg/kg) starting day 6. FIG. 4B. Effects of Hif1α or Pdl1 knockdown on E0771 growth among immunodeficient or immunocompetent recipients. FIG. 4C. Effects of vehicle or echinomycin on sh^−Scr, sh^−Hif1α, or sh^−Pdl1 E0771 growth in immunocompetent C57BL/6 recipients. FIG. 4D. Effects of vehicle or echinomycin (arrows) on sh^−Scr, sh^−Hif1α, or sh^−Pdl1 E0771 growth in immunodeficient NSG recipients. Data shown are means+/−SEM (n=5/group) and are representative of 2 experiments.
FIGS. 5A-D show at echinomycin potentiates the therapeutic effect of anti-CTLA-4 antibody. FIG. 5A. Experimental design. In 4T1, E0771, or MC38 syngeneic tumor models, the effects of echinomycin on tumor growth were tested in combination with anti-CTLA-4 therapy (9D9). Tumor growth kinetics in mice receiving vehicle, echinomycin, and anti-CTLA-4 (9D9) monotherapies, or anti-CTLA-4+anti-PD-1 (9D9+RMP1-14) are shown. Starting on day 6 after tumor cell inoculation, mice received vehicle or echinomycin and/or various mAbs. The mean tumor volumes±SEM are shown for each group. FIG. 5B. Effects of 9D9+echinomycin on 4T1 tumor growth. BALB/c mice received vehicle, liposomal echinomycin (LEM, 0.15 mg/kg) (blue arrows), 9D9 (0.2 mg/mouse/injection) (red arrows), or both (n=10/group). Data shown for one of three independent experiments. FIG. 5C. Effects of 9D9+echinomycin on syngeneic E0771 growth. E0771 cells (0.5×10^6) were orthotopically transplanted into the mammary fat pads of C57BL/6 mice. Mice received vehicle or echinomycin (0.25 mg/kg) and/or various mAbs (0.2 mg/mouse/injection) (red arrows). Representative data shown for one of three independent experiments (n=5/group). FIG. 5D. […]

The record followed here is patent US20240139280A1, “USE OF HIF-1-ALPHA INHIBITORS IN CANCER IMMUNOTHERAPY” (ONCOC4, INC., priority 2021, published 2024).

With `CSC1SC[C@H]2C(=O)N(C)[C@@H](C(C)C)C(=O)OC[C@@H](NC(=O)c3cnc4ccccc4n3)C(=O)N[C@@H](C)C(=O)N(C)[C@@H]1C(=O)N(C)[C@@H](C(C)C)C(=O)OC[C@@H](NC(=O)c1cnc3ccccc3n1)C(=O)N[C@@H](C)C(=O)N2C` (stereo in doubt) [echinomycin, N,N′-(2,4,12,15,17,25-hexamethyl-11,24-bis(1-methylethyl)-27-(methylthio)-3,6,10,13,16,19,23,26-octaoxo-9,22-dioxa-28-thia-2,5,12,15,18,25-hexaazabicyclo(12.12.3)nonacosane-7,20-diyl)bis(2-quinoxalinecarboxamide)], the “E0771 tumor growth, combination study” value (C57BL/6, echinomycin 0.25 mg/kg, mAbs 0.2 mg/mouse/injection, vs vehicle) is “significant inhibition of tumor growth”. Moreover, the “sh-Scr E0771 tumor growth” value (C57BL/6 compared to NSG recipients, echinomycin 0.25 mg/kg) is recorded as “more effectively inhibited”. Besides, under “C57BL/6 or NSG recipients, echinomycin 0.25 mg/kg”, the “sh-Pdl1 E0771 tumor growth” value is “did not further suppress”. The E0771 tumor growth entry (immunocompetent C57BL/6, echinomycin 0.25 mg/kg) was “therapeutic effect on immune competent”. The “sh-Hif1α E0771 tumor growth” value (regardless of recipient strain (C57BL/6, NSG), echinomycin 0.25 mg/kg) was “did not inhibit”.
